{"source": "paper PMC3081938", "about": "(Journal of natural products, 2011)", "key": {"KOP receptors [1]": {"molecular_target": "T1, KOP receptors (Homo sapiens, UniProt P41145)", "T1 sequence (P41145 whole entry)": "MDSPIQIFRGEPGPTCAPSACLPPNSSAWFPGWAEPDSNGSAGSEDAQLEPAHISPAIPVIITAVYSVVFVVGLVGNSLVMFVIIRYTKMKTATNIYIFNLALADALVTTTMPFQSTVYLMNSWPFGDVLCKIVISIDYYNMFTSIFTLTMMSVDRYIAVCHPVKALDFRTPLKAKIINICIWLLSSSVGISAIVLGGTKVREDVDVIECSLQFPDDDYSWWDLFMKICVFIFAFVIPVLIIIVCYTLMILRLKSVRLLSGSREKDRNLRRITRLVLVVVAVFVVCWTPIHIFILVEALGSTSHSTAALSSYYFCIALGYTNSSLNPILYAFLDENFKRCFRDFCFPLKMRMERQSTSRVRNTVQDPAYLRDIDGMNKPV", "test": "biochemical", "format": "binding"}, "DOP receptors": {"molecular_target": "DOP receptors (Homo sapiens, UniProt P41143)", "sequence (P41143 whole entry)": "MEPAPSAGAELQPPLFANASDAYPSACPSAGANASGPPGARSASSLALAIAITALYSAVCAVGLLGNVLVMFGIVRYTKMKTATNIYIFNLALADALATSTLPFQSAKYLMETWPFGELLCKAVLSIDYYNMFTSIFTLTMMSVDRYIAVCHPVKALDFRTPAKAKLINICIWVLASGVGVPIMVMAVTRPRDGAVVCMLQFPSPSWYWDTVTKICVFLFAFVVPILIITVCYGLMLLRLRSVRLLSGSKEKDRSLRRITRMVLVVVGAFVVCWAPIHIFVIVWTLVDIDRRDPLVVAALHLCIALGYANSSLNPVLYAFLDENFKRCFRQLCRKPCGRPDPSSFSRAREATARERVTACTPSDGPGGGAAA", "format": "binding"}, "KOP receptors [2]": {"molecular_target": "T1, KOP receptors", "test": "biochemical", "format": "biochemical"}, "5-HT2A receptor": {"test_system": "5-HT2A receptor", "conditions": "cited from earlier work"}, "κ opioid (KOP) receptors": {"test_system": "κ opioid (KOP) receptors", "conditions": "cited from earlier work"}, "[3]": {"test_system": "locomotor effects of cocaine", "conditions": "rats; cited from earlier work"}, "[4]": {"test_system": "opioid mediated antinociceptive properties", "conditions": "rats; cited from earlier work"}}, "note": "“Also recorded” adds a separate entry of the source.", "data": [{"smiles": "COC(=O)c1ccc([C@@H]2C[C@]3(C)[C@H]4C(=O)[C@@H](OC(C)=O)C[C@@H](C(=O)OC)[C@]4(C)CC[C@H]3C(=O)O2)cc1C(=O)OC", "note": "[Compound 14, Dimethyl 4-((2S,4aR,6aR,7R,9S,10aS,10bR)-9-acetoxy-7-(methoxycarbonyl)-6a,10b-dimethyl-4,10-dioxododecahydro-1H-benzo[f]isochromen-2-yl)phthalate]", "values": [{"measurement": "Ki", "setting": "KOP receptors [1]", "result": 0.228, "unit": "µM"}]}, {"smiles": "COC(=O)[C@@H]1C[C@H](OC(C)=O)C(=O)[C@H]2[C@@]1(C)CC[C@H]1C(=O)O[C@H](c3ccc4ccccc4c3)C[C@]21C", "note": "[Compound 15, (2S,4aR,6aR,7R,9S,10aS,10bR)-methyl 9-acetoxy-6a,10b-dimethyl-2-(naphthalen-2-yl)-4,10-dioxododecahydro-1H-benzo[f]isochromene-7-carboxylate]", "values": [{"measurement": "Ki", "setting": "KOP receptors [1]", "result": 0.286, "unit": "µM"}]}, {"smiles": "COC(=O)[C@@H]1C[C@H](OC(C)=O)C(=O)[C@H]2[C@@]1(C)CC[C@H]1C(=O)O[C@H](C3=CC4OC3C3C5OC(c6c5c5ccccc5c(=O)c5ccccc65)C43)C[C@]21C", "note": "(stereo partly drawn) [Compound 11, (2S,4aR,6aR,7R,9S,10aS,10bR)-Methyl 9-acetoxy-2-(8,8a,9,12,12a,13-hexahydro-8,13:9,12-diepoxy-5H-dibenzo[3,4:6,7]cyclohept[1,2]naphthanen-5-on-10-yl)-6a,10b-dimethyl-4,10-dioxododecahydro-1H-benzo[f]isochromene-7-carboxylate]", "values": [{"measurement": "Ki ± SD (nM) DOP", "setting": "DOP receptors", "result": "no appreciable affinity"}]}, {"smiles": "COC(=O)C1=C(C(=O)OC)C2OC1C=C2[C@@H]1C[C@]2(C)[C@H]3C(=O)[C@@H](OC(C)=O)C[C@@H](C(=O)OC)[C@]3(C)CC[C@H]2C(=O)O1", "note": "(stereo partly drawn) [Compound 6, Dimethyl 5-((2S,4aR,6aR,7R,9S,10aS,10bR)-9-acetoxy-7-(methoxycarbonyl)-6a,10b-dimethyl-4,10-dioxododecahydro-1H-benzo[f]isochromen-2-yl)-7-oxabicyclo[2.2.1]hepta-2,5-diene-2,3-dicarboxylate]", "values": [{"measurement": "EC50", "setting": "KOP receptors [2]", "result": "0.98 ± 0.2", "unit": "µM"}, {"measurement": "Efficacy at KOP receptors (in words)", "setting": "KOP receptors [2]", "result": "full agonist"}]}, {"smiles": "CCOC(=O)C1=C(C(=O)OCC)C2OC1C=C2[C@@H]1C[C@]2(C)[C@H]3C(=O)[C@@H](OC(C)=O)C[C@@H](C(=O)OC)[C@]3(C)CC[C@H]2C(=O)O1", "note": "(stereo partly drawn) [Compound 5, Diethyl 5-((2S,4aR,6aR,7R,9S,10aS,10bR)-9-acetoxy-7-(methoxycarbonyl)-6a,10b-dimethyl-4,10-dioxododecahydro-1H-benzo[f]isochromen-2-yl)-7-oxabicyclo[2.2.1]hepta-2,5-diene-2,3-dicarboxylate]", "values": [{"measurement": "Fold increase in affinity for DOP receptors", "setting": "DOP receptors", "result": "over 4 fold"}, {"measurement": "EC50", "setting": "KOP receptors [2]", "result": 2.15, "unit": "µM"}, {"measurement": "Efficacy at KOP receptors (in words)", "setting": "KOP receptors [2]", "result": "full agonists; also recorded: high efficacy"}]}, {"smiles": "COC(=O)[C@@H]1C[C@H](OC(C)=O)C(=O)[C@H]2[C@@]1(C)CC[C@H]1C(=O)O[C@H](c3ccoc3)C[C@]21C", "note": "[Compound 1, (2S,4aR,6aR,7R,9S,10aS,10bR)-methyl 9-acetoxy-2-(furan-3-yl)-6a,10b-dimethyl-4,10-dioxo-dodecahydro-1H-benzo[f]isochromene-7-carboxylate]", "values": [{"measurement": "KOP ED50 ± SD", "setting": "KOP receptors [2]", "result": 0.04, "unit": "µM"}, {"measurement": "Affinity for the 5-HT2A receptor", "setting": "5-HT2A receptor", "result": "does not have any affinity"}, {"measurement": "Agonism at κ opioid (KOP) receptors", "setting": "κ opioid (KOP) receptors", "result": "full agonist"}, {"measurement": "Effect on locomotor effects of cocaine", "setting": "[3]", "result": "can block the locomotor effects of cocaine"}, {"measurement": "Antinociceptive properties", "setting": "[4]", "result": "opioid mediated antinociceptive properties"}]}, {"smiles": "COC(=O)[C@@H]1C[C@H](OC(C)=O)C(=O)[C@H]2[C@@]1(C)CC[C@H]1C(=O)O[C@H](C3=CC4OC3C3C4C4OC3(C)c3c4c4ccccc4c(=O)c4ccccc34)C[C@]21C", "note": "(stereo partly drawn) [Compound 12, (2S,4aR,6aR,7R,9S,10aS,10bR)-Methyl 9-acetoxy-2-(8,8a,9,12,12a,13-hexahydro-8-methyl-8,13:9,12-diepoxy-5H-dibenzo[3,4:6,7]cyclohept[1,2]naphthanen-5-on-10-yl)-6a,10b-dimethyl-4,10-dioxododecahydro-1H-benzo[f]isochromene-7-carboxylate]", "values": [{"measurement": "Fold increase in affinity for KOP receptors", "setting": "KOP receptors [1]", "result": 44, "unit": "fold"}]}]}
